Entries after “also recorded” stand apart in the source; their conditions may differ.
Columns and labels:
ALuc16 [1] = experiment: Metal cation-driven variance of bioluminescence spectra of ALuc16; type: biochemical; details: 100 μg/mL cation
Experimental: The corresponding bioluminescence spectra (FIG. 6(B)) were also measured using the same method as that of FIG. 6(A). In a 200 μL PCR tube, 50 μL of the mixture of ALuc16 and a metal cation (Ca(II), Fe(III), Ni(II), Zn(II), Mg(II), or Cr(VI); concentration: 100 μg/mL) in the metal-cation-free Tris-HCl buffer (Solution A) was further mixed with 10 μL of an nCTZ solution (Solution B). The tube was immediately moved into the chamber of a precision spectrophotometer (AB-1850, ATTO) (FIG. 6(B)), and the consequent spectra were taken in an integration of 30 seconds.

ALuc16 [2] = experiment: Cation-driven long-term stability of optical intensities of ALuc16; type: biochemical
Experimental: The long-term stability of optical intensities was estimated by the same method as that of FIG. 6(A) (FIG. 8(A)). The microplate was placed in the chamber of LAS-4000, and the optical intensities were monitored every 5 minutes, after substrate injection, for a duration of 60 minutes.

molecular strain sensor = experiment: Metal ion effects on luminescence of the purified molecular strain sensor; type: biochemical; details: within 1 minute after substrate addition
Experimental: For this experiment, the concentration of the purified molecular strain sensor was adjusted to 0.1 mg/mL by dilution in a Tris-HCl buffer (pH 8.2). Rapamycin was added to the molecular strain sensor and the final concentration was adjusted to […]. After that, the resultant was diluted with metal ion-containing Tris-HCl buffer (pH 8.2) to make a 0.01 mg/mL molecular strain sensor solution. At this time, the final concentration of the metal ion added was 10 μg/mL. The solution was transferred to a 96-well microplate, and, while the substrate solution was added from a microinjector, luminescence intensities were measured with or without a metal ion.
The luminescence stability of the luminescent probe dependent on different metal ion concentrations was studied by a similar technique (FIG. 23). The substrate solution was added from a microinjector in the same manner as above, and then changes in luminescence intensity over 1 minute were measured.

Fridericia luciferase = details: cited from earlier work
ALuc16 [3] = experiment: Metal cation-driven optical intensities of ALuc16 (purified enzyme); type: biochemical
Experimental: The metal cation-driven optical properties were estimated with ALuc16 (FIG. 6). A metal cation-free sample of ALuc16 was prepared beforehand as follows: we first generated a DNA construct of ALuc16 carrying a Strep-II tag at the C-terminus via PCR. The construct was then cloned into a pOPTHM vector (providing a cleavable N-terminal His6-MBP tag), and expressed in the bacterial strain Shuffle T7 Express (New England Biolabs) with 0.3 mM IPTG induction. […] The lysate was centrifuged at 18,000 rpm for 40 minutes, and then the supernatant was passed over a 5 mL HisTrap HP column (GE Healthcare). […] The eluted sample was dialyzed to a metal-cation-free Tris-HCl buffer (0.05 M, pH 8.2) at 4° C. for 24 hours, and finally adjusted to a concentration of 1 mg/ml by dilution. […] Meanwhile, the corresponding substrate solution carrying nCTZ (Promega) was diluted 100-fold with the cation-free Tris-HCl buffer (Solution B). 50 μL of Solution B was simultaneously injected into Solution A in the 96-well plate with a multichannel micropipette (Gilson). The microplate was immediately moved to an image analyzer (LAS-4000, FujiFilm) equipped with a cooled charge-coupled device (CCD) camera, and the optical intensities were simultaneously estimated in a precision mode. The measurements were conducted in triplicate (n=3). The optical images were analyzed with Multi Gauge V3.2 (FujiFilm). […] The experiment was conducted by the same method as that of FIG. 6. In the inset, the optical image taken with LAS-4000 (FujiFilm) is shown.

ALuc16 [4] = experiment: Circular dichroism (CD) measurement of metal cation-mixed ALuc16
Experimental: Circular dichroism (CD) measurement was further conducted for reasoning the cation-driven degradation of ALuc16 activities (FIG. 9). Samples were prepared by mixing varying concentrations of Pb(II) or Al(III) with column-purified and dialyzed ALuc16, and were measured with a CD spectrometer (JASCO, Japan) after preparation.

[5] = Luminescence activity of novel artificial bioluminescent enzymes (COS-7 cell lysate); type: biochemical, African green monkey; details: COS-7 lysate, native coelenterazine
Experimental: African green monkey kidney-derived COS-7 cells were cultured using a 96-well microplate. The COS-7 cells were grown until occupying 90% of the bottom-surface area of the culture plate, and, as shown in FIG. 19 and FIG. 20, were each transiently transfected with a pcDNA 3.1(+) vector (Invitrogen) encoding each luminescent enzyme with a lipofection reagent (TransIT-LT1, Mirus). After that, the cells were further cultured for about 1 day. After the culture, cell lysates were prepared using a cell lysis agent (Lysis buffer, Promega), and 5 μL each of the cell lysates was taken from each well and transferred to a 96-well microplate for measurement. An assay buffer (50 μL) containing native coelenterazine was simultaneously added to each well using a multichannel pipette. Immediately after the addition of the assay buffer, the microplate was moved into the black box of an image analyzer (LAS-4000, FujiFilm), and luminescence images were measured with a CCD camera (FIG. 19 and FIG. 20).

[6] = Enzymatic activity confirmation: temporal stability in luminescence; type: biochemical, African monkey; details: compared to existing ALuc or conventional copepod luciferases
Experimental: The enzymatic activity of ALuc may be examined according to the following method. First, using a known lipid reagent for gene introduction, an expression vector encoding ALuc is introduced into African monkey-derived COS-7 cells. As a control, an expression vector having a known GLuc without any mutation is also introduced into the cells in the same manner. At a predetermined time (from 10 hours to 20 hours, for example, 16 hours) after the introduction of the vector, a cell lysate is prepared using a known cell lysis reagent.
After that, the cell lysate is mixed with a known substrate solution containing coelenterazine, and its color intensity, temporal stability in luminescence, and the like are measured.
The luminescence intensity may be found by measuring the intensity at a specific wavelength using a conventional luminescence spectrophotometer after addition of a known substrate. By performing the measurement every minute, the temporal stability in luminescence can be evaluated based on the temporal change in luminescence. In order to measure a shift to a longer wavelength, scanning of the entire wavelength is required.

## [Ca+2].[Cl-].[Cl-] [Ca(II)]
ALuc16 [1]
  blue shift of the bioluminescence spectrum: 2 nm
ALuc16 [2]; 60 minutes after substrate injection
  effect on long-term stability of bioluminescence intensities: prolonged the bioluminescence intensities in a concentration-dependent manner
ALuc16 [2]; after 60 minutes
  optical intensity retained: 4%
ALuc16 [2]; for 13 minutes after nCTZ injection
  initial optical intensity sustained: 60%
Molecular strain sensor
  effect of increasing concentration on overall luminescence intensity: reduces an overall luminescence intensity
Molecular strain sensor; with/without rapamycin
  effect of increasing concentration on S/N ratio: improves an S/N ratio
Fridericia luciferase
  effect on activities of Fridericia luciferase: elevate

## [Cl][Ni][Cl] [Ni(II)]
ALuc16 [1]
  red shift of the bioluminescence spectrum: 4 nm

## [Cl][Pb][Cl] [Pb(II)]
ALuc16 [3]; Tris-HCl, pH 8.2
  concentration by which the optical intensity was quickly decreased: 1 µg/mL
ALuc16 [3]; dose-response of ALuc16 activities
  detection limit: around 0.4 μg/mL
ALuc16 [3]; metal cation-free Tris-HCl buffer (pH 8.2, 0.05 M), nCTZ
  effect on optical intensities (activities) of ALuc16: suppress; also recorded: quickly inhibited
ALuc16 [4]
  levels that showed basal noise CD spectra: higher than 1 μg/mL
ALuc16 [4]; varying cation concentrations
  effect on structure of ALuc16 (CD spectra, 222 nm): destroy the tertiary structure of ALuc16; also recorded: the structure of ALuc16 is denatured

B1: ALuc45: artificial luciferase, SEQ ID NO: 5 (protein)
chain: MMGIKVLFALVCLALVQAKPTEDEDEDDIVDVVGNFWAIGVDNDRDFTISADRGKLPGKKLPKEVLIEIEANAKKAGCTRGCLICLSKIKCTAKMKKWLPGRCHSYEGDKDTGQGGIGEPIVDAPEIPGFKDLTPMEQFIAQVDLCADCTTGCLKGLANVKCSALLKKWLPDRCASFADKIQKEVDNIKGLAGS
[5]
  luminescence intensities as compared to conventional ALucs (e.g., ALuc16 and ALuc30): even stronger luminescence intensities
[6]
  luminescence stability: remarkably stable luminescence signal

From patent US10787650B2, “Artificial bioluminescent enzymes” (NATIONAL INSTITUTE OF ADVANCED INDUSTRIAL SCIENCE AND …, priority 2015, dated 2020)
